Values of other authors as cited in US6509030B2, “Cultured fish carotenoid and polyphenol added feed for improving fish body color tone and fish meat brilliance” (Toshiyuki Sakiura, priority 2000, dated 2003).

Which “chemical stability, acidic” value (acidic) does the source give for `CC1=C(/C=C/C(C)=C/C=C/C(C)=C/C=C/C=C(C)/C=C/C=C(C)/C=C/C2=C(C)C(=O)[C@@H](O)CC2(C)C)C(C)(C)C[C@H](O)C1=O` [Asthaxanthine, asthaxanthine] here?
The value was “very unstable”.

What about the “chemical stability, basic” value (basic) of the same compound?
Its value is “Unstable”.

And the “chemical stability, neutral” value (neutral)?
The value was “Unstable”.
